Test results published in patent US6355799B1, “Substituted benzene compounds, process for their preparation, and herbicidal and defoliant compositions containing them” (ISK Americas Incorporated, priority 1997, dated 2002).

Columns and labels:
Type in all cases: in vivo
[1] = system: johnsongrass (Sorghum halepense, SORHA); assay: Pre-emerge test, greenhouse herbicide activity screening; conditions: pre-emerge, 14 days after application, scale 0-100
Method in brief: (§1)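 Fourteen days after spraying, crop and weed injury was graded visually from 0, no effect, to 100, every plant dead. Test substances were dissolved in acetone and applied at 15–1000 g ai/ha with a flat-fan nozzle. Application was either pre-emergence, one day after sowing, or post-emergence at the 2–3 leaf stage.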

[2] = system: green foxtail (Setaria viridis, SETVI); assay: as above; conditions: pre-emerge, 14 days after application, scale 0-100
Method in brief: as §1

[3] = system: large crabgrass (Digitaria sanguinalis, DIGSA); assay: as above; conditions: pre-emerge, 14 days after application, scale 0-100
Method in brief: as §1

[4] = system: velvetleaf (Abutilon theophrasti, ABUTH); assay: as above; conditions: pre-emerge, 14 days after application, scale 0-100
Method in brief: as §1

[5] = system: sicklepod (Cassia obtusifolia, CASOB); assay: as above; conditions: pre-emerge, 14 days after application, scale 0-100
Method in brief: as §1

[6] = system: ivyleaf morningglory (Ipomoea hederacea, IPOHE); assay: as above; conditions: pre-emerge, 14 days after application, scale 0-100
Method in brief: as §1

[7] = system: lambsquarters (Chenopodium album, CHEAL); assay: as above; conditions: pre-emerge, 14 days after application, scale 0-100
Method in brief: as §1

[8] = system: barnyardgrass (Echinochloa crus-galli, ECHCG); assay: as above; conditions: pre-emerge, 14 days after application, scale 0-100
Method in brief: as §1

[9] = system: upland rice (Oryza sp., var. Tebonnet, RICE); assay: Post-emerge test, crop safety; conditions: post-emerge, 14 days after application, rating scale 0-100
Method in brief: as §1

[10] = system: field corn (Zea mays L., var. Dekalb 535, CORN); assay: Post-emerge test, crop safety; conditions: post-emerge, 14 days after application, rating scale 0-100
Method in brief: as §1

[11] = system: johnsongrass (Sorghum halepense, SORHA); assay: Post-emerge test, greenhouse herbicide activity screening; conditions: post-emerge, 14 days after application, rating scale 0-100
Method in brief: (§2)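 Rating: 0–100 visual injury, 14 DAA. Application: acetone, 187 l/ha, 15–1000 g ai/ha, flat-fan track sprayer with nozzle 40–45 cm above soil or canopy. Post-emerge runs used 0.25% v/v surfactant on 2–3 leaf plants.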

[12] = system: green foxtail (Setaria viridis, SETVI); assay: as above; conditions: post-emerge, 14 days after application, rating scale 0-100
Method in brief: as §2

[13] = system: large crabgrass (Digitaria sanguinalis, DIGSA); assay: as above; conditions: post-emerge, 14 days after application, rating scale 0-100
Method in brief: as §2

[14] = system: velvetleaf (Abutilon theophrasti, ABUTH); assay: as above; conditions: post-emerge, 14 days after application, rating scale 0-100
Method in brief: as §2

[15] = system: sicklepod (Cassia obtusifolia, CASOB); assay: as above; conditions: post-emerge, 14 days after application, rating scale 0-100
Method in brief: as §2

[16] = system: ivyleaf morningglory (Ipomoea hederacea, IPOHE); assay: as above; conditions: post-emerge, 14 days after application, rating scale 0-100
Method in brief: as §2

[17] = system: lambsquarters (Chenopodium album, CHEAL); assay: as above; conditions: post-emerge, 14 days after application, rating scale 0-100
Method in brief: as §2

[18] = system: barnyardgrass (Echinochloa crus-galli, ECHCG); assay: as above; conditions: post-emerge, 14 days after application, rating scale 0-100
Method in brief: as §2

[19] = system: redroot pigweed (Amaranthus retroflexus, AMARE); assay: as above; conditions: post-emerge, 14 days after application, rating scale 0-100
Method in brief: as §2

[20] = system: redroot pigweed (Amaranthus retroflexus, AMARE); assay: Pre-emerge test, greenhouse herbicide activity screening; conditions: pre-emerge, 14 days after application, scale 0-100
Method in brief: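 Herbicidal damage is scored 0 (none) to 100 (complete plant death) two weeks after a simulated field spray. Rates span 15–1000 g ai/ha, delivered in acetone at 187 l/ha. For post-emergence treatments, plants have 2–3 leaves and the spray carries 0.25% v/v non-ionic surfactant.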

[21] = system: upland rice (Oryza sp., var. Tebonnet, RICE); assay: Pre-emerge test, crop safety; conditions: pre-emerge, 14 days after application, scale 0-100
Method in brief: as §2

[22] = system: field corn (Zea mays L., var. Dekalb 535, CORN); assay: Pre-emerge test, crop safety; conditions: pre-emerge, 14 days after application, scale 0-100
Method in brief: as §2

In the case of COc1c(Br)cc(F)c(-n2c(=O)cc(C(F)(F)F)n(C)c2=O)c1N(C(=O)C=Cc1ccccc1)C(=O)C=Cc1ccccc1 [2-178], the “phytotoxicity rating SORHA” value ([1]; 63 g ai/ha) is reported as 0, the “phytotoxicity rating SORHA” value ([1]; 250 g ai/ha) is reported as 0 and the “phytotoxicity rating SETVI” value ([2]; 63 g ai/ha) is reported as 0. For the same molecule, the “phytotoxicity rating SETVI” value ([2]; 250 g ai/ha) was 0, the “phytotoxicity rating DIGSA” value ([3]; 63 g ai/ha) was 0 and the “phytotoxicity rating DIGSA” value ([3]; 250 g ai/ha) was 0. For the same molecule, the “phytotoxicity rating ABUTH” value ([4]; 63 g ai/ha) was 0, the “phytotoxicity rating ABUTH” value ([4]; 250 g ai/ha) was 0 and the “phytotoxicity rating CASOB” value ([5]; 63 g ai/ha) was 0. For the same molecule, the “phytotoxicity rating CASOB” value ([5]; 250 g ai/ha) was 0, the “phytotoxicity rating IPOHE” value ([6]; 63 g ai/ha) was 0 and the “phytotoxicity rating IPOHE” value ([6]; 250 g ai/ha) was 0. For the same molecule, the “phytotoxicity rating CHEAL” value ([7]; 63 g ai/ha) was 20, the “phytotoxicity rating CHEAL” value ([7]; 250 g ai/ha) was 0 and the “phytotoxicity rating ECHCG” value ([8]; 63 g ai/ha) was 0. The “phytotoxicity rating ECHCG” value ([8]; 250 g ai/ha) was 0, the “RICE phytotoxicity rating (crop damage)” value ([9]; 63 g ai/ha) was 0 and the “RICE phytotoxicity rating (crop damage)” value ([9]; 250 g ai/ha) was 0. The “CORN phytotoxicity rating (crop damage)” value ([10]; 63 g ai/ha) was 0, the “CORN phytotoxicity rating (crop damage)” value ([10]; 250 g ai/ha) was 0 and the SORHA phytotoxicity rating ([11]; 63 g ai/ha) was 0. The SORHA phytotoxicity rating ([11]; 250 g ai/ha) was 0, the SETVI phytotoxicity rating ([12]; 63 g ai/ha) was 0 and the SETVI phytotoxicity rating ([12]; 250 g ai/ha) was 0. For the same molecule, the DIGSA phytotoxicity rating ([13]; 63 g ai/ha) was 0, the DIGSA phytotoxicity rating ([13]; 250 g ai/ha) was 0 and the ABUTH phytotoxicity rating ([14]; 63 g ai/ha) was 40. For the same molecule, the ABUTH phytotoxicity rating ([14]; 250 g ai/ha) was 50, the CASOB phytotoxicity rating ([15]; 63 g ai/ha) was 0 and the CASOB phytotoxicity rating ([15]; 250 g ai/ha) was 0. It also gave an IPOHE phytotoxicity rating ([16]; 63 g ai/ha) of 30, an IPOHE phytotoxicity rating ([16]; 250 g ai/ha) of 20 and a CHEAL phytotoxicity rating ([17]; 63 g ai/ha) of 30. It also gave a CHEAL phytotoxicity rating ([17]; 250 g ai/ha) of 40, an ECHCG phytotoxicity rating ([18]; 63 g ai/ha) of 0 and an ECHCG phytotoxicity rating ([18]; 250 g ai/ha) of 0. For the same molecule, the AMARE phytotoxicity rating ([19]; 63 g ai/ha) was 50, the AMARE phytotoxicity rating ([19]; 250 g ai/ha) was 70 and the “phytotoxicity rating AMARE” value ([20]; 63 g ai/ha) was 0. The “phytotoxicity rating AMARE” value ([20]; 250 g ai/ha) was 0, the “phytotoxicity rating RICE (crop damage)” value ([21]; 63 g ai/ha) was 0 and the “phytotoxicity rating RICE (crop damage)” value ([21]; 250 g ai/ha) was 0. For the same molecule, the “phytotoxicity rating CORN (crop damage)” value ([22]; 63 g ai/ha) was 0 and the “phytotoxicity rating CORN (crop damage)” value ([22]; 250 g ai/ha) was 0.
